Assay results reported in article PMC5370276, “Induction of Osteopontin by Dengue Virus-3 Infection in THP-1 Cells: Inhibition of the Synthesis by Brefelamide and Its Derivative” (Frontiers in Microbiology, 2017).

Experiments:
[1] = system: THP-1 cells; assay: Cytotoxicity, CellTiter 96 Aqueous (MTS) cell proliferation assay; type: cell-based, human; conditions: 24 h incubation
Description: (§1) Brefelamide, henceforth referred to as compound A ([Kikuchi et al., 2005]), is an aromatic amide isolated from methanol extracts of Dictyostelium brefeldianum and D. giganteum slime mold fruiting bodies; its derivative, henceforth referred to as compound B ([Kikuchi et al., 2005]; [Zhang et al., 2016b]), contains a methyl ether group (-OCH3). Both compounds were dissolved in dimethyl sulfoxide (DMSO) at a concentration of 50 mM and stored at -20°C. Aliquots of the stock solutions were further diluted with appropriate growth medium to the desired concentrations before use. […] THP-1 and 293T cells were seeded in 96-well tissue culture plates at a density of 1.8 × 10^4/well in 90 μl of the appropriate growth medium and incubated for 24 h at 37°C in a humidified 5% CO2 atmosphere. The following day, 10 μl of compounds A and B at concentrations ranging from 0.0001 to 10 mM were added to each well. […] The absorbance at 490 nm was recorded with an ELISA plate reader and the IC50 value was determined by identifying the X-axis value corresponding to one-half of the difference between the maximum and minimum absorbance values using GraphPad Prism v.6 software (GraphPad Inc., San Diego, CA, USA).

[2] = system: 293T cells; assay: as above; type: cell-based, human; conditions: 24 h incubation
Description: Both compounds were dissolved in dimethyl sulfoxide (DMSO) at a concentration of 50 mM and stored at -20°C. Aliquots of the stock solutions were further diluted with appropriate growth medium to the desired concentrations before use. […] The following day, 10 μl of compounds A and B at concentrations ranging from 0.0001 to 10 mM were added to each well. After incubation for 24 h, 20 μl per well of 3-(4,5-dimethyl-2-yl)-5-(3-carboxymethoxyphenyl)-2-(4-sulfophenyl)-2H-tetrazolium salt/phenazine methosulfate solution was added to each well, followed by incubation for 4 h. The absorbance at 490 nm was recorded with an ELISA plate reader and the IC50 value was determined by identifying the X-axis value corresponding to one-half of the difference between the maximum and minimum absorbance values using GraphPad Prism v.6 software (GraphPad Inc., San Diego, CA, USA).

[3] = system: OPN mRNA in THP-1 cells; assay: OPN mRNA expression by RT-qPCR in uninfected and DENV-3-infected THP-1 cells; type: cell-based, human; conditions: 72 h
Text: Glyceraldehyde 3-phosphate dehydrogenase (GAPDH) was used as reference gene for normalization of expression levels and was amplified with the following forward and reverse primers: GAPDH-F, 5′-[…]-3′ and GAPDH-R, 5′-[…]-3′. The Taqman probe was as follows: 5′[FAM]–[…]–[BHQ1]3′. A forward and reverse primer set (SPP1-F, 5′-[…]-3′ and SPP1-R, 5′-[…]-3′) and a probe (SPP1-P, 5′-[FAM]–[…] GAAGT–[BHQ1]3′) (Takara Bio) were used to quantify OPN mRNA ([Qin et al., 2015]). The mean fold change in OPN mRNA level was calculated as fold difference = 2^-ΔΔCt.
(§2) Changes in OPN expression in uninfected THP-1 and 293T cell lines in response to treatment with compounds A and B were assessed. Each well in a 12-well tissue culture plate was seeded with 1.8 × 10^5 cells. After overnight incubation, the compounds were added at final concentrations of 3–100 μM. Cells were harvested 3 days later. OPN mRNA and protein levels were quantified by RT-qPCR and ELISA, respectively, to determine the optimal concentration.
THP-1 and 293T cells were seeded in a Nunc cell culture tube and a 12-well cell culture plate, respectively, at 1.8 × 10^5/well. […] Cell viability was evaluated by Trypan Blue exclusion and DENV copy number was determined by RT-qPCR. OPN mRNA and protein levels were quantified by RT-qPCR and ELISA, respectively.

[4] = system: OPN mRNA in 293T cells; assay: OPN mRNA expression by RT-qPCR in uninfected and DENV-3-infected 293T cells; type: cell-based, human; conditions: uninfected 293T cells, 3-30 μM, 72 h
[5] = system: Osteopontin (OPN) in THP-1 cells; assay: OPN protein level in culture supernatant by ELISA, THP-1 cells; type: cell-based, human
Description: (§3) Osteopontin levels in the cell culture supernatant were quantified using an ELISA kit (R&D Systems, Minneapolis, MN, USA) according to the manufacturer’s instructions and as previously reported ([Chagan-Yasutan et al., 2014]). The supernatant was diluted eightfold for THP-1 cells and two–fourfold for 293T cells, and the final value was calculated as [drawing 1] and was expressed as pg/ml/10^6 cells.
as §2
(§4) THP-1 and 293T cells were seeded in a Nunc cell culture tube and a 12-well cell culture plate, respectively, at 1.8 × 10^5/well. After overnight incubation, cells were washed and incubated with fresh medium containing DENV-3 at an MOI of 0.1 or incubated without virus for 1.5 h. The inoculum was then removed and cells were washed twice with fresh medium, and compounds A and B were added at final concentrations of 3, 10, and 30 μM. […] On day 3 post-infection, culture supernatants and cell lysates were collected. Cell viability was evaluated by Trypan Blue exclusion and DENV copy number was determined by RT-qPCR. OPN mRNA and protein levels were quantified by RT-qPCR and ELISA, respectively.

[6] = system: Osteopontin (OPN) in 293T cells; assay: OPN protein level in culture supernatant by ELISA, 293T cells; type: cell-based, human
Description: as §3, §2
as §4, with “The inoculum was then removed and cells were washed twice with fresh medium, and compounds A and B were added at final concentrations of 3, 10, and 30 μM.” left out

[7] = system: DENV-3; assay: DENV RNA copy number by RT-qPCR in infected THP-1 cells; type: cell-based, Dengue virus-3; conditions: 72 h
Description: (§5) Viral copy number in culture supernatants and cell lysates was measured by RT-qPCR as previously described ([Chagan-Yasutan et al., 2013]) using the RNA UltraSense One-Step Quantitative RT-PCR System (Invitrogen, Carlsbad, CA, USA) and Thermal Cycler Dice Real Time System (Takara Bio, Otsu, Japan) according to the manufacturers’ protocols. Primers and hydrolysis probes specific to the 3′ untranslated region of each of the four DENV genotypes have been previously published ([Chagan-Yasutan et al., 2013]). The forward and reverse primers were as follows 5′-[…]-3′ and 5′-[…]-3′ ([Warrilow et al., 2002]). The TaqMan probe was labeled at the 5′ and 3′ ends with a 6-carboxyfluorescein (FAM) reporter and Black Hole quencher (BHQ)-1 (i.e., 5′[FAM]–[…]–[BHQ1]3′). The copy numbers obtained by DENV RT-qPCR were linearly associated with plaque numbers (data not shown).
as §4

[8] = system: DENV-infected THP-1 cells; assay: Toxicity to DENV-infected THP-1 cells; type: cell-based, human; conditions: dose-dependent
Description: as §4

[9] = system: DENV-infected 293T cells; assay: Toxicity to DENV-infected 293T cells; type: cell-based, human; conditions: dose-dependent
Description: as §4

[10] = system: astrocytoma cells; set-up: method as in Kikuchi et al., 2005; Honma et al., 2009; conditions: by inhibiting ERK phosphorylation; ref Kikuchi et al., 2005; Honma et al., 2009; cited from earlier work
[11] = Cytotoxicity, CellTiter 96 Aqueous (MTS) cell proliferation assay; type: cell-based, human; conditions: human, THP-1 cells, 24 h incubation
Description: as §1

[12] = system: DENV-3; assay: DENV RNA copy number by RT-qPCR in infected 293T cells; type: cell-based, Dengue virus-3; conditions: 0.3 μM
Description: as §5
THP-1 and 293T cells were seeded in a Nunc cell culture tube and a 12-well cell culture plate, respectively, at 1.8 × 10^5/well. After overnight incubation, cells were washed and incubated with fresh medium containing DENV-3 at an MOI of 0.1 or incubated without virus for 1.5 h. […] Cell viability was evaluated by Trypan Blue exclusion and DENV copy number was determined by RT-qPCR. OPN mRNA and protein levels were quantified by RT-qPCR and ELISA, respectively.

[13] = DENV-infected THP-1 cells, MOI 0.1, 3 days

SMILES	IC50 [1]	IC50 [2]	OPN mRNA expression ([3]; DENV-infected THP-1 cells, MOI 0.1, 3-30 μM)	OPN mRNA expression ([3]; uninfected THP-1 cells, 3-30 μM)	OPN mRNA levels [4]	OPN level in supernatant after treatment ([5]; DENV-infected THP-1 cells, 10 μM compound, 3 days, infected control 67848.9)	OPN levels in supernatant [5, 13]	OPN levels in supernatant ([5]; uninfected THP-1 cells, 3 days)	OPN expression (protein, supernatant) ([6]; DENV-infected 293T cells, MOI 0.1, 3 days)	OPN expression (protein, supernatant) ([6]; uninfected 293T cells, 3 days)	Suppression of DENV RNA levels relative to the control ([7]; THP-1 cell culture supernatant, 10 μM)	Suppression of DENV RNA levels ([7]; THP-1 cell lysates, 10 μM)	Toxic concentration [8]	Toxic concentration [9]	Proliferation of astrocytoma cells [10]	IC50 at 24 h [11]	OPN production ([6]; DENV-infected 293T cells, 0.3 μM)	Virus replication (DENV RNA copy number) ([7]; THP-1 culture supernatant, 0.3-1 μM)	Viral replication (DENV RNA) ([12]; 293T cell lysates)	Viral replication (DENV RNA) ([12]; 293T culture supernatant)
Nc1c(Oc2ccc(O)cc2)cccc1C(=O)CCNC(=O)c1ccc(O)cc1 [compound A, Brefelamide]	102 µM	32.2 µM	inhibited OPN mRNA expression in a dose-dependent manner	had no effect	reduced OPN mRNA levels	12247.9 pg/ml/10^6 cells	dose-dependent reduction	had no effect	did not inhibit	did not inhibit	75%	not lysates	> 30 µM	> 30 µM	suppressed the proliferation	–	–	–	–	–
CCC(C)(C)C(=O)O[C@H]1C[C@@H](C)C=C2C=C[C@H](C)[C@H](CC[C@@H]3C[C@@H](O)CC(=O)O3)[C@H]21 [simvastatin, reference compound]	–	–	–	–	–	–	had no effect	–	–	–	–	–	–	–	–	14.1 µM	suppressed OPN production	had no effect	inhibited viral replication	inhibited viral replication
